Test results reported in patent US20250127904A1, “SIGLEC LIGANDS, CONJUGATES, AND METHODS OF USE THEREOF” (Osprey Biopharmaceuticals, Inc., priority 2023, published 2025).

Assays:
[1] = target: recombinant cynomolgus siglec-2/CD22 His-tag (Macaca fascicularis, UniProt A0A2K5WCZ6); assay: SPR binding to cynomolgus siglec-2/CD22; details: steady-state analysis, read-out: Cyno CD22 affinity
Description: (§1) The following proteins were used for CD22 ligand binding: biotinylated human siglec-2/CD22 protein-His-Avitag (Acro Biosystems, Cat #SI2-H82E3), biotinylated mouse siglec-2-Fc-Avi (in-house production), and recombinant cynomolgus siglec-2/CD22 His-tag (R&D systems, Cat #9864-SL-050). Prior to immobilization, CD22 proteins were treated with SialoExo (Genovis, Cat #G1-SM1-020) for 4 hours at 37° C. to remove native sialic acid residues.
Surface preparation for cyno CD22 protein consisted of amine coupling to Cytiva CM5 chip (Cytiva, Cat #BR100530) using the Cytiva amine coupling kit Type 2 (Cytiva, Cat #BR100633). Following the standard amine coupling protocols, EDC and NHS from the kit were mixed 1:1 and injected over flow cells 1 and 2. Cyno CD22 was then immobilized by injecting 10 μg/mL in Sodium Acetate, pH 5.5 onto flow cell (2) for 420 seconds at 10 uL/min, yielding approximately 2500 RU of captured protein. Any active carboxy groups were then capped with 1M Ethanolamine, pH 8.5 for 420 s on flow cells 1 and 2.
(§2) Binding experiments of siglec-ligand conjugated proteins or Siglec ligand compounds were performed on the surfaces prepared above in 10 mM HEPES, 150 mM NaCl, 0.05% Tween-20, pH 7.5, 1% DMSO as the running buffer. Compounds were serially diluted in running buffer from 50 μM to 97.6 nM and injected over both the reference and active flow cells for 90 seconds at 30 μL/min. The compounds were then allowed to dissociate from the surface for 120 seconds. No regeneration was required as the compounds completely dissociated from the surface after 30 seconds. Solvent correction was performed using 0.5, 1, 1.5, and 2% DMSO spike into running buffer without DMSO. Data was analyzed using steady-state analysis in Biacore Insight Evaluation Software, version 3.0.

[2] = target: T1, biotinylated mouse siglec-2-Fc-Avi (Mus musculus, UniProt P35329); assay: SPR binding to mouse siglec-2/CD22; details: steady-state analysis, read-out: Mouse CD22 affinity
T1 construct: made in house
T1 sequence (P35329 22-708 limits assumed): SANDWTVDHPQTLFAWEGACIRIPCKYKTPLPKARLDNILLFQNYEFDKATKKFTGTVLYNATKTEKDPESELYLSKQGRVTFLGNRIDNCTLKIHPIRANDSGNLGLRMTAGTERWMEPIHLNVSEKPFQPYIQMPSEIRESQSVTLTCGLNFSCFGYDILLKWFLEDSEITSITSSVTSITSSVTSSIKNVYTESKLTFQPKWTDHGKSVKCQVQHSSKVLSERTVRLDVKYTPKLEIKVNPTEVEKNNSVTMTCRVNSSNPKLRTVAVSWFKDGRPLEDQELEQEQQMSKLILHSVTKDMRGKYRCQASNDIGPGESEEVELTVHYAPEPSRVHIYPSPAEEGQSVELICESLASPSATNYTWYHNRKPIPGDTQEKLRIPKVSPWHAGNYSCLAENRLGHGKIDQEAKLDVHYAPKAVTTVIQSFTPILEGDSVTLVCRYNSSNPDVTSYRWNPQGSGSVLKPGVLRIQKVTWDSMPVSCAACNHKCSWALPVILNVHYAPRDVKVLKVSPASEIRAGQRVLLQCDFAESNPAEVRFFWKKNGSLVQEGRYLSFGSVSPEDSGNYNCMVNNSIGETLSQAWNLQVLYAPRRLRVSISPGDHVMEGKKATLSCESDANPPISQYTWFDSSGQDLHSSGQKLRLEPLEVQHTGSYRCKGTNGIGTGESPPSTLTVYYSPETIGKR
Description: as §1
(§3) Capture of biotinylated CD22 constructs was performed using a Cytiva SA chip (BR100398) on a Biacore 8K instrument. Human siglec 2 was immobilized on channels 1-4 and mouse siglec 2 on channels 5-8 on the active flow cell (2) and the reference flow cell (1) was immobilized with biotinylated human FGFR2 Fc Avi, an unrelated protein, to account for any nonspecific binding. Human siglec 2 and Mouse siglec 2 were diluted in running buffer to 20 μg/mL and injected on the active flow cell (2) for 300 seconds at 5 μL/min, yielding about 3500 RU of captured constructs.
as §2

[3] = target: T2, biotinylated human siglec-2/CD22 protein-His-Avitag (Homo sapiens, UniProt P20273); assay: SPR binding to human siglec-2/CD22; details: steady-state analysis, read-out: Human CD22 affinity
T2 construct: purchased Acro Biosystems SI2-H82E3
T2 sequence (P20273 20-847): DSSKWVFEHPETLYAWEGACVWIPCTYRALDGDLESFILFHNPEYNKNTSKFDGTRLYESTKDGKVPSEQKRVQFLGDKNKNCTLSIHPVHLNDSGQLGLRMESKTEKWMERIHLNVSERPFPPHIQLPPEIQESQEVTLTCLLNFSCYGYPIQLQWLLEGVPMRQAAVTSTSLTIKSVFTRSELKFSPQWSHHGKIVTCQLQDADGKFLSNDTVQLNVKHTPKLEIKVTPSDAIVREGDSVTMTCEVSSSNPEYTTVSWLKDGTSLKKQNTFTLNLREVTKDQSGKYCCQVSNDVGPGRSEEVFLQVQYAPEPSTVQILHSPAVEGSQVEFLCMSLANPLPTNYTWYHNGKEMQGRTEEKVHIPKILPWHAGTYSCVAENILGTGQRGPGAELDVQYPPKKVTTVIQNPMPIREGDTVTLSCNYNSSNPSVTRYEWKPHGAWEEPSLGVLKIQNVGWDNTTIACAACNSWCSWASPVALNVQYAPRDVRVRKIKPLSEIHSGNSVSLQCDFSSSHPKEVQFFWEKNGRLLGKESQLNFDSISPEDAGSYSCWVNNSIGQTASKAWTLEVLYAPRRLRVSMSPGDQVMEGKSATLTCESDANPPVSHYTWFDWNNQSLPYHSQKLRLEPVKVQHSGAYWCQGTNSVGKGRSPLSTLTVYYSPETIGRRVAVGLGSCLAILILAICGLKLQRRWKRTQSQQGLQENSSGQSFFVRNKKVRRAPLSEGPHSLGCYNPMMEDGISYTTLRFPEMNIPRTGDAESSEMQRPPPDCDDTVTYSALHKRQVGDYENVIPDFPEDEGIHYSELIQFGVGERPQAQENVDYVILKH
Description: as §1, §3, §2

Chain of recombinant cynomolgus siglec-2/CD22 His-tag (A0A2K5WCZ6 entry or part of it): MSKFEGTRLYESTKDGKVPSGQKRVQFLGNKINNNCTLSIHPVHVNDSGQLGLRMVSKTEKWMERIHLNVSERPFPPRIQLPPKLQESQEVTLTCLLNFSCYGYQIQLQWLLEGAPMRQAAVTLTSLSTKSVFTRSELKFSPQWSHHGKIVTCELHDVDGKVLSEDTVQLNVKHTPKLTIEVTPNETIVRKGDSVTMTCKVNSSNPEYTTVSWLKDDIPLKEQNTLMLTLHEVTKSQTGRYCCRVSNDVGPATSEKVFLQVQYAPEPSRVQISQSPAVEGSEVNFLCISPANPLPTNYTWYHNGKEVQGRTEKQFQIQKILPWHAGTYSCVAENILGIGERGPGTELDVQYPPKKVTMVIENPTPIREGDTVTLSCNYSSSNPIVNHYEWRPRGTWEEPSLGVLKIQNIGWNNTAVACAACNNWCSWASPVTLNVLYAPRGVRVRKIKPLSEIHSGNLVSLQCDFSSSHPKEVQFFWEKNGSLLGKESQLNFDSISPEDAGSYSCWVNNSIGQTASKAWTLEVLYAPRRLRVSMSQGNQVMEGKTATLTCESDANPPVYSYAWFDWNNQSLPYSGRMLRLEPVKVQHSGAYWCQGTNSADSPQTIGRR

SMILES	Kd [1]	Kd [2]	Kd [3]
CCCNC(=O)CCOCCOCCOCCn1cc(CO[C@H]2C[C@](OCc3ccccc3)(C(=O)O)O[C@@H]([C@H](O)[C@H](O)CNC(=O)Cc3ccc(Cl)cc3)[C@@H]2NC(=O)CO)nn1 [Compound 19, (2R,4S,5R,6R)-2-(benzyloxy)-6-((1R,2R)-3-(2-(4-chlorophenyl)acetamido)-1,2-dihydroxypropyl)-5-(2-hydroxyacetamido)-4-((1-(12-oxo-3,6,9-trioxa-13-azahexadecyl)-1H-1,2,3-triazol-4-yl)methoxy)tetrahydro-2H-pyran-2-carboxylic acid]	1000 to 10000 nM	1000 to 10000 nM	1000 to 10000 nM
C#CCO[C@H]1C[C@](OCCCCCC(=O)O)(C(=O)O)O[C@@H]([C@H](O)[C@H](O)CNC(=O)Cc2ccc(Cl)cc2)[C@@H]1NC(=O)CO [Compound 20, (2R,4S,5R,6R)-2-((5-carboxypentyl)oxy)-6-((1R,2R)-3-(2-(4-chlorophenyl)acetamido)-1,2-dihydroxypropyl)-5-(2-hydroxyacetamido)-4-(prop-2-yn-1-yloxy)tetrahydro-2H-pyran-2-carboxylic acid]	1000 to 10000 nM	1000 to 10000 nM	1000 to 10000 nM
C#CCOCCOCCOCCOCCOCCNC(=O)N[C@H]1[C@H]([C@H](O)[C@H](O)CNC(=O)Cc2ccc(Cl)cc2)O[C@@](OCc2ccccc2)(C(=O)O)C[C@@H]1O [Compound 22, (2R,4S,5R,6R)-5-(3-(3,6,9,12,15-pentaoxaoctadec-17-yn-1-yl)ureido)-2-(benzyloxy)-6-((1R,2R)-3-(2-(4-chlorophenyl)acetamido)-1,2-dihydroxypropyl)-4-hydroxytetrahydro-2H-pyran-2-carboxylic acid]	1000 to 10000 nM	1000 to 10000 nM	> 10000 nM
O=C(O)CCCCCCCCCCc1ccc(CC(=O)NC[C@@H](O)[C@@H](O)[C@@H]2O[C@@](OCc3ccccc3)(C(=O)O)C[C@H](O)[C@H]2NC(=O)CO)cc1 [Compound 8, (2R,4S,5R,6R)-2-(benzyloxy)-6-((1R,2R)-3-(2-(4-(10-carboxydecyl)phenyl)acetamido)-1,2-dihydroxypropyl)-4-hydroxy-5-(2-hydroxyacetamido)tetrahydro-2H-pyran-2-carboxylic acid]	1000 to 10000 nM	< 1000 nM	< 1000 nM
C#CCOCCOCCOCc1ccc(CC(=O)NC[C@@H](O)[C@@H](O)[C@@H]2O[C@@](OCc3ccccc3)(C(=O)O)C[C@H](O)[C@H]2NC(=O)CO)cc1 [Compound 9, (2R,4S,5R,6R)-2-(benzyloxy)-6-((1R,2R)-1,2-dihydroxy-3-(2-(4-((2-(2-(prop-2-yn-1-yloxy)ethoxy)ethoxy)methyl)phenyl)acetamido)propyl)-4-hydroxy-5-(2-hydroxyacetamido)tetrahydro-2H-pyran-2-carboxylic acid]	1000 to 10000 nM	1000 to 10000 nM	1000 to 10000 nM

Other lines, results leading:

Kd [1]	Kd [2]	Kd [3]	SMILES
< 1000 nM	1000 to 10000 nM	< 1000 nM	C#Cc1ccc(CC(=O)NC[C@@H](O)[C@@H](O)[C@@H]2O[C@@](OCCCCCCOC)(C(=O)O)C[C@H](O)[C@H]2NC(=O)CO)cc1 [Compound 11, (2R,4S,5R,6R)-6-((1R,2R)-3-(2-(4-ethynylphenyl)acetamido)-1,2-dihydroxypropyl)-4-hydroxy-5-(2-hydroxyacetamido)-2-((6-methoxyhexyl)oxy)tetrahydro-2H-pyran-2-carboxylic acid]
1000 to 10000 nM	1000 to 10000 nM	1000 to 10000 nM	C#CCCCCCCCCOc1ccc(CC(=O)NC[C@@H](O)[C@@H](O)[C@@H]2O[C@@](OCc3ccccc3)(C(=O)O)C[C@H](O)[C@H]2NC(=O)CO)cc1 [Compound 7, (2R,4S,5R,6R)-2-(benzyloxy)-6-((1R,2R)-3-(2-(4-(dec-9-yn-1-yloxy)phenyl)acetamido)-1,2-dihydroxypropyl)-4-hydroxy-5-(2-hydroxyacetamido)tetrahydro-2H-pyran-2-carboxylic acid]
< 1000 nM	< 1000 nM	< 1000 nM	CCCCCCO[C@]1(C(=O)O)C[C@H](O)[C@@H](NC(=O)CO)[C@H]([C@H](O)[C@H](O)CNC(=O)Cc2ccc(-c3cn(CCOCCOCCOCCC(=O)NCC)nn3)cc2)O1 [Compound 16, (2R,4S,5R,6R)-6-((1R,2R)-1,2-dihydroxy-3-(2-(4-(1-(12-oxo-3,6,9-trioxa-13-azapentadecyl)-1H-1,2,3-triazol-4-yl)phenyl)acetamido)propyl)-2-(hexyloxy)-4-hydroxy-5-(2-hydroxyacetamido)tetrahydro-2H-pyran-2-carboxylic acid]
